Source: US11028090B2 (Dong Wha Pharm. Co., Ltd., priority 2017, dated 2021)
Structures can show the parent of a compound that is named as a salt. Where two headings read alike, the source gives them in different places.

Target: BRD4 (BD1+BD2) bromodomain (Homo sapiens (Human), UniProt O60885)
Assay: BRD4 binding inhibition (AlphaScreen, GST-BRD4 vs tetraacetylated histone H4 peptide)
Procedure: A mixture comprising 100 nM GST-BRD4 (BD1+BD2) and 100 nM biotinylated acetyl-histone H4 (Lys5,8,12,16) peptide was prepared in assay buffer (50 mM HEPES pH 7.4; 25 mM NaCl; 0.05% Tween 20; 0.1% bovine serum albumin (BSA); 10 mM dithiothreitol (DTT)). After adding 6 μl of the mixture to the diluent, 6 μl of the pre-mixed AlphaLISA Glutathione Acceptor Beads and AlphaScreen Streptavidin Donor Beads (PerkinElmer, 10 μg/ml in assay buffer, respectively) was added thereto. The samples were incubated in the dark at room temperature for 30 minutes (shaking at 300 rpm). Then, the signals were measured with PerkinElmer Envision HTS Multilabel Reader using an alpha screen protocol of PerkinElmer. Each plate contained the negative control in which biotinylated acetyl-histone H4 peptide and GST-BRD4 (BD1+BD2) were replaced by assay buffer. In the case of using the software GraphPad Prism for calculation, the negative control point was input as a low standard value. The positive control (probe molecule l-BET762 containing protein/peptide mixture) proceeded to pipetting.

[1] = GST-BRD4 (BD1+BD2) / biotinylated acetyl-histone H4 (Lys5,8,12,16) peptide, read-out: IC50, BRD4 binding inhibition
[2] = GST-BRD4 (BD1+BD2) vs biotinylated acetyl-histone H4 peptide, AlphaScreen, read-out: BRD4 IC50

| Compound | IC50 [1] | IC50 [2] |
| --- | --- | --- |
| Cc1nnc2c(NCCCCNC(=O)[C@@H](F)C(C)C)nc3cc(N4C[C@@H](C)O[C@@H](C)C4)ccc3n12 [Example 511, N-{4-[7-(2,6-dimethyl-morphonyl-4-yl)-1-methyl-[1,2,4]triazolo[4,3-a]quinoxaline-4-ylamino]-butyl}-2-(S)-fluoro-3-methyl-butyramide] | ≤ 50 nM | 34 nM |
| COc1ccc(C(=O)c2ccc3c(c2)nc(NCCCCNC(=O)OC(C)(C)C)c2nnc(C)n23)cc1 [Example 262, {4-[7-(4-methoxy-benzoyl)-1-methyl-[1,2,4]triazolo[4,3-a]quinoxaline-4-ylamino]-butyl}-carbamic acid-tert-butylester] |  | 72 nM |
| Cc1nnc2c(NCCCCNC(=O)OC(C)(C)C)nc3ccc([N+](=O)[O-])cc3n12 [Example 541, [4-(1-methyl-8-nitro-[1,2,4]triazolo[4,3-a]quinoxaline-4-ylamino)-butyl]-carbamic acid-tert-butylester] | ≤ 50 nM | 37 nM |
| Cc1nnc2c(NCCCCN)nc3cc(N4CCOCC4)ccc3n12 [Example 498, N^1-(1-methyl-7-morpholine-4-yl-[1,2,4]triazolo[4,3-a]quinoxaline-4-yl)-butane-1,4-diamine dihydrochloride] |  | 98 nM |
| COc1c(C)ccc2c1nc(NCCCCNC(=O)[C@H](O)C(C)C)c1nnc(C)n12 [Example 136, 2-(R)-hydroxy-N-[4-(6-methoxy-1,7-dimethyl-[1,2,4]triazolo[4,3-a]quinoxaline-4-ylamino)-butyl]-3-methyl-butyramide] | ≤ 50 nM | 58 nM |
| CC(=O)OC(C)(C)C(=O)NCCCCNc1nc2cc(-c3nc4ccccc4n3C)ccc2n2c(C)nnc12 [Example 231, acetic acid-1-{4-[7-(1-methyl-1H-benzoimidazole-2-yl)-1-methyl-[1,2,4]triazolo[4,3-a]quinoxaline-4-ylamino]-butylcarbamoyl}-1-methyl-ethylester] | ≤ 50 nM | 14 nM |
| N-(4-{7-[4-(N-hydroxycarbamimidoyl)-benzoyl]-1-methyl-[1,2,4]triazolo[4,3-a]quinoxaline-4-ylamino}-butyl)-3-methyl-butyramide [Example 347] | ≤ 50 nM | 18 nM |
| COc1cc(C)c2c(c1)nc(NCCCCNC(=O)OC(C)(C)C)c1nnc(C)n12 [Example 455, [4-(7-methoxy-1,9-dimethyl-[1,2,4]triazolo[4,3-a]quinoxaline-4-ylamino)-butyl]-carbamic acid-tert-butylester] | ≤ 50 nM | 31 nM |
| CC(=O)OCC(=O)NCCCCNc1nc2cc3c(cc2n2c(C)nnc12)OCCO3 [Example 184] | ≤ 50 nM | 30 nM |
| COCCOc1ccc2c(c1)nc(NCCCCNC(=O)[C@@H](NC(=O)[C@@H](O)C(C)C)C(C)C)c1nnc(C)n12 [Example 404, 2-(S,S)-hydroxy-N-(1-{4-[7-(2-methoxy-ethoxy)-1-methyl-[1,2,4]triazolo[4,3-a]quinoxaline-4-ylamino]-butylcarbamoyl}-2-methyl-propyl)-3-methyl-butyramide] | ≤ 50 nM | 15 nM |
| Cc1nnc2c(NCCCCNC(=O)CC(C)C)nc3cc(C(=O)O)ccc3n12 [Example 201, 1-methyl-4-[4-(3-methyl-butyrylamino)-butylamino]-[1,2,4]triazolo[4,3-a]quinoxaline-7-carboxylic acid] | ≤ 50 nM | 26 nM |
| COc1cc2nc(NCCCCNC(=O)SC(C)C)c3nnc(C)n3c2cc1OC [Example 110, [4-(7,8-dimethoxy-1-methyl-[1,2,4]triazolo[4,3-a]quinoxaline-4-ylamino)-butyl]-thiocarbamic acid-S-isopropylester] | ≤ 50 nM | 35 nM |
| COc1ccc2c(c1)nc(NCCCCNC(=O)C(C)(C)O)c1nnc(C)n12 [Example 297, 2-hydroxy-N-[4-(7-methoxy-1-methyl-[1,2,4]triazolo[4,3-a]quinoxaline-4-ylamino)-butyl]-2-methyl-propionamide] | ≤ 50 nM | 27 nM |
| Cc1nnc2c(NCCCCNC(=O)[C@H](O)C(C)C)nc3cc4c(cc3n12)OCCO4 [Example 182, 2-(R)-hydroxy-3-methyl-N-[4-(1-methyl-8,9-dihydro-7,10-dioxa-2,3,5,11b-tetraaza-cyclopenta[a]anthracene-4-ylamino)-butyl]-butyramide] | ≤ 50 nM | 22 nM |
| Cc1nnc2c(NCCCCNC(=O)c3ccc(Cl)c(Cl)c3)nc3ccccc3n12 [Example 16, 3,4-dichloro-N-[4-(1-methyl-[1,2,4]triazolo[4,3-a]quinoxaline-4-ylamino)-butyl]-benzamide] | ≤ 50 nM | 44 nM |
| Cc1nnc2c(NCCCCNC(=O)C(C)C)nc3cc(Cl)c(Cl)cc3n12 [Example 29, N-[4-(7,8-dichloro-1-methyl-[,2,4]triazolo[4,3-a]quinoxaline-4-ylamino)-butyl]-isobutyramide] |  | 98 nM |

| Compound | IC50 [1] | IC50 [2] |
| --- | --- | --- |
| Cc1nnc2c(NCCCCNC(=O)CC(C)C)nc3cc(Cl)c(Cl)cc3n12 [Example 30, N-[4-(7,8-dichloro-1-methyl-[1,2,4]triazolo[4,3-a]quinoxaline-4-ylamino)-butyl]-3-methyl-butyramide] | ≤ 10 nM |  |
| COc1cc2nc(NCCCCNC(=O)CC(C)C)c3nnc(C(C)C)n3c2cc1OC [Example 603, N-[4-(1-isopropyl-7,8-dimethoxy-[1,2,4]triazolo[4,3-a]quinoxaline-4-ylamino)-butyl]-3-methyl-butyramide] | ≤ 50 nM | 34 nM |
| COCCOc1ccc2c(c1)nc(NCCCCNC(=O)c1ccccn1)c1nnc(C)n12 [Example 416, pyridine-2-carboxylic acid-{4-[7-(2-methoxy-ethoxy)-1-methyl-[1,2,4]triazolo[4,3-a]quinoxaline-4-ylamino]-butyl}-amide] |  | 52 nM |
| COc1cc2nc(NCCCCNC(=O)NC3CCCCC3)c3nnc(C)n3c2cc1C(F)(F)F [Example 482, 1-cyclohexyl-3-[4-(7-methoxy-1-methyl-8-trifluoromethyl-[1,2,4]triazolo[4,3-a]quinoxaline-4-ylamino)-butyl]-urea] | ≤ 50 nM | 20 nM |
| COCCOc1ccc2c(c1)nc(NCCCCNC(=O)C1CC1)c1nnc(C)n12 [Example 377, cyclopropane carboxylic acid-{4-[7-(2-methoxy-ethoxy)-1-methyl-[1,2,4]triazolo[4,3-a]quinoxaline-4-ylamino]-butyl}-amide] | ≤ 50 nM | 39 nM |
| COCC(=O)NCCCCNc1nc2cc(OC)c(OC)cc2n2c(C)nnc12 [Example 80, N-[4-(7,8-dimethoxy-1-methyl-[1,2,4]triazolo[4,3-a]quinoxaline-4-ylamino)-butyl]-2-methoxy-acetamide] | ≤ 50 nM | 28 nM |
| COc1cc2nc(NCCCCC(=O)NC(C)(C)C)c3nnc(C)n3c2cc1OC [Example 646] |  | 56 nM |
| Cc1nnc2c(NCCCCNC(=O)OC(C)(C)C)nc3cc(C(=O)NCc4ccc(Cl)cc4)ccc3n12 [Example 211, {4-[7-(4-chloro-benzylcarbamoyl)-1-methyl-[1,2,4]triazolo[4,3-a]quinoxaline-4-ylamino]-butyl}-carbamic acid-tert-butylester] | ≤ 50 nM | 34 nM |
| COc1ccc2nc(NCCCCNC(=O)[C@@H](O)C(C)C)c3nnc(C)n3c2c1 [Example 126, 2-(S)-hydroxy-N-[4-(8-methoxy-1-methyl-[1,2,4]triazolo[4,3-a]quinoxaline-4-ylamino)-butyl]-3-methyl-butyramide] | ≤ 10 nM | 4 nM |
| Cc1nnc2c(NCCCCNC(=O)c3cccc(Cl)c3Cl)nc3ccccc3n12 [Example 17] |  | 51 nM |
| Cc1nnc2c(NCCCCNC(=O)NC(C)(C)C)nc3ccccc3n12 [Example 22, 1-tert-butyl-3-[4-(1-methyl-[1,2,4]triazolo[4,3-a]quinoxaline-4-ylamino)-butyl]-urea] |  | 81 nM |
| Cc1nnc2c(NCCCCNC(=O)OC(C)(C)C)nc3ccc(Cl)cc3n12 [Example 54, [4-(8-chloro-1-methyl-[1,2,4]triazolo[4,3-a]quinoxaline-4-ylamino)-butyl]-carbamic acid-tert-butylester] | ≤ 50 nM | 50 nM |
| Cc1ccc2nc(NCCCCNC(=O)NC(C)(C)C)c3nnc(C)n3c2c1 [Example 44, 1-tert--butyl-3-[4-(1,8-dimethyl-[1,2,4]triazolo[4,3-a]quinoxaline-4-ylamino)-butyl]-urea] |  | 72 nM |
| CCOC(=O)CC(=O)NCCCCNc1nc2cc(OCCOC)ccc2n2c(C)nnc12 [Example 394, N-{4-[7-(2-methoxy-ethoxy)-1-methyl-[1,2,4]triazolo[4,3-a]quinoxaline-4-ylamino]-butyl}-malonamic acid ethylester] | ≤ 50 nM | 34 nM |
| Cc1nnc2c(NCCCCNC(=O)C(C)(C)C)nc3ccc(NC(=O)C(C)C)cc3n12 [Example 545] |  | 65 nM |
| Cc1nnc2c(NCCCCN)nc3cc(-c4nc5ccccc5n4C)ccc3n12 [Example 221, N^1-[1-methyl-7-(1-methyl-1H-benzoimidazole-2-yl)-[1,2,4]triazolo[4,3-a]quinoxaline-4-yl]-butane-1,4-diamine ditrifluoroacetic acid] |  | 62 nM |
